We go through 7 molecules from publication PMC12251482, “Floridoside Phosphotriester Derivatives: Synthesis and Inhibition of Human Neutrophils’ Oxidative Burst” (Molecules, 2025).

The subject of test [1] is PMA-stimulated human neutrophils. Kind of test: PMA-induced neutrophils' oxidative burst, oxidation of luminol (chemiluminescence). It counts as cell-based. Conditions: PMA 160 nM, mean ± SEM; for Luminol: highest obtained % of inhibition / inhibition at 100 µM: at 100 µM; for inhibition at 100 µM / IC50: Homo sapiens, Neutrophil; for inhibition at 100 µM: read-out: Luminol: highest obtained % of inhibition. The method, then: Luminol is easily oxidized by reactive species produced during neutrophils’ oxidative burst, resulting in a chemiluminescent signal. The effect of the compounds under study on the modulation of neutrophil oxidative burst was determined after stimulation with PMA, a known neutrophil activator, because its effect is closely analogous to that obtained during the phagocytic process. Following a previously reported method, in a 96-well plate, neutrophils were incubated in the dark at 37 °C for 5 min with luminol (500 μM) and the tested compounds (10–100 μM) or DMSO (final concentration 4%). Quercetin, a flavonoid known for its anti-inflammatory activity (0.3–5.0 μM), and the inhibitor of NADPH oxidase, DPI (0.01–10 μM), were used as controls. After incubation, PMA (160 nM) was added, and the chemiluminescence was measured in a microplate reader (Synergy HT, BIO-TEK Instruments, Inc., Winooski, VT, USA). Kinetic readings were initiated immediately after cell stimulation. Measurements were taken at the peak of the curve. […] Effects are expressed as the inhibition percentage of luminol oxidation. The results obtained represent at least three independent experiments. […]
3.4 Evaluation of neutrophils' oxidative burst
3.4.1 Oxidation of luminol
Luminol is easily oxidized by reactive species produced during neutrophils’ oxidative burst, resulting in a chemiluminescent signal. The eﬀect of the compounds under study on the modulation of neutrophil oxidative burst was determined after stimulation with PMA, a known neutrophil activator, because its eﬀect is closely analogous to that obtained during the phagocytic process. Following a previously reported method, in a 96-well plate, neutrophils were incubated in the dark at 37 °C for 5 minutes with luminol (500 µM) and the tested compounds (10 - 100 µM) or DMSO (ﬁnal concentration 4%). Quercetin, a ﬂavonoid known for its anti-inﬂammatory activity (0.3 - 5.0 µM), and the inhibitor of NADPH oxidase, DPI (0.01 - 10 µM), were used as positive and negative controls, respectively. After incubation, PMA (160 nM) was added, and the chemiluminescence was measured in a microplate reader (Synergy HT, BIO-TEK Instruments, Inc., Winooski, VT, USA). Kinetic readings were initiated immediately after cell stimulation. Measurements were taken at the […]
peak of the curve. […] Eﬀects are expressed as the inhibition percentage of luminol oxidation. The obtained results represent at least three independent experiments.

Test [2] shares this test system. Kind of test: HOCl generation by PMA-stimulated neutrophils, oxidation of APF. It counts as cell-based. Conditions: PMA 160 nM, mean ± SEM; for APF: highest obtained % of inhibition / inhibition at 50 µM: at 50 µM; for inhibition at 50 µM / IC50: Homo sapiens, Neutrophil; for inhibition at 50 µM: read-out: APF: highest obtained % of inhibition. As for the experimental part: APF is a non-fluorescent derivative of fluorescein, which is oxidized by HOCl, ONOO^−, and HO^• [87], in a concentration-dependent manner. Its selectivity was tested using the myeloperoxidase (MPO) inhibitor, 4-aminobenzoic acid hydrazide (ABAH). The addition of ABAH to human neutrophils, stimulated with PMA, decreased the APF-dependent fluorescence signal to the level of the control assay, ruling out the involvement of HO^• and ONOO^− [88]. The previously established methodology for monitoring oxidative burst modulation was adapted. In a 96-well plate, neutrophils (2 × 10^6 cells/mL) were incubated in the dark at 37 °C for 5 min with APF (2 μM) and the tested compounds (10–100 μM) or DMSO (4%). Quercetin (0.3–5.0 μM) and DPI (0.01–10 μM) were used as controls. After incubation, PMA (160 nM) was added, and the fluorescence (excitation at 495 nm and emission at 528 nm) was measured in a microplate reader (Synergy HT, BIO-TEK Instruments, Inc., Winooski, VT, USA). Kinetic readings were initiated immediately after the addition of APF. Obtained values correspond to the slope measured between 5 and 15 min. Effects are expressed as the percentage inhibition of APF oxidation. The results obtained represent at least three independent experiments.
APF is a non-ﬂuorescent derivative of ﬂuorescein, which is oxidized by HOCl, [20] ONOO-, and HO• [21] in a concentration- dependent manner. Its selectivity was tested using the myeloperoxidase (MPO) inhibitor, 4-aminobenzoic acid hydrazide (ABAH). The addition of ABAH to human neutrophils, stimulated with PMA, decreased the APF-dependent ﬂuorescence signal to the level of the control assay, ruling out the involvement of HO• and ONOO− [22]. The previously established methodology for monitoring oxidative burst modulation was adapted. In a 96-well plate, neutrophils (2 x 10^6 cells/mL) were incubated in the dark at 37 °C for 5 minutes with APF (2 µM) and the tested compounds (10 - 100 µM) or DMSO (4%). Quercetin (0.3 - 5.0 µM) and DPI (0.01 - 10 µM) were used as positive and negative controls, respectively. After incubation, PMA (160 nM) was added, and the ﬂuorescence (excitation at 495 nm and emission at 528 nm) was measured in a microplate reader (Synergy HT, BIO-TEK Instruments, Inc., Winooski, VT, USA). Kinetic readings were initiated immediately after the addition of APF. Obtained values correspond to the slope measured between 5 and 15 minutes. Eﬀects are expressed as the percentage inhibition of APF oxidation. The obtained results represent at least three independent experiments. […]
(§1) GraphPad Prism 6 software was used to plot the inhibition percentage versus compound concentration curves, enabling the determination of the concentration required to achieve 50% inhibition (IC50). GraphPad Prism 6 software was also used to perform all statistical analyses.
(§2) […] was estimated by applying the one-way analysis (ANOVA), followed by the Bonferroni’s multiple comparisons test. In all cases, p-values < 0.05 were considered statistically signiﬁcant. The results are expressed as mean ± standard error of the mean (SEM).

The test system is the same in test [3]. Kind of test: H2O2 generation by PMA-stimulated neutrophils, oxidation of Amplex Red. It counts as cell-based. Conditions: PMA 160 nM, mean ± SEM; for Amplex Red: highest obtained % of inhibition / inhibition at 50 µM: at 50 µM; for inhibition at 50 µM / IC50: Homo sapiens, Neutrophil; for inhibition at 50 µM: read-out: Amplex Red: highest obtained % of inhibition. The method, then: Amplex Red is a highly sensitive and chemically stable fluorescent probe for the extracellular detection of H2O2 [82]. The methodology used previously for monitoring the modulation of the oxidative burst was adapted. In a 96-well plate, neutrophils (2 × 10^6 cells/mL) were incubated in the dark at 37 °C for 5 min with Amplex Red (25 μM), horseradish peroxidase (0.25 U/mL), and the compounds under study (10–100 μM) or DMSO (4%). Quercetin (0.3–5.0 μM) and DPI (0.01–10 μM) were used as controls. After incubation, PMA (160 nM) was added, and the fluorescence (excitation at 530 nm and emission at 590 nm) was measured in a microplate reader (Synergy HT, BioTek Instruments, Inc., Winooski, VT, USA). Obtained values correspond to the slope measured between 5 and 10 min. Effects are expressed as the percentage inhibition of Amplex Red oxidation. The results obtained represent at least three independent experiments. […] 3.4.3 Oxidation of Amplex Red
Amplex Red is a highly sensitive and chemically stable ﬂuorescent probe for the extracellular detection of H2O2 [16]. The methodology used previously for monitoring the modulation of the oxidative burst was adapted.
In a 96-well plate, neutrophils (2 x 10^6 cells/mL) were incubated in the dark at 37 °C for 5 minutes with Amplex Red (25 µM), horseradish peroxidase (0.25 U/mL) , and the compounds under study (10 - 100 µM) or DMSO (4%). Quercetin (0.3 - 5.0 µM) and DPI (0.01 - 10 µM) were used as positive controls for inhibition. After incubation, PMA (160 nM) was added, and the ﬂuorescence (excitation at 530 nm and emission at 590 nm) was measured in a microplate reader (Synergy HT, BioTek Instruments, Inc., Winooski, VT, USA). Obtained values correspond to the slope measured between 5 and 10 minutes. Eﬀects are expressed as the percentage inhibition of Amplex Red oxidation. The obtained results represent at least three independent experiments.
as §1, §2

The subject of the next test is RAW 264.7 macrophages. Details: method as in PMID 11292070, doi:10.1016/j.fbio.2025.105894. Particulars: read-out: IC50 for the inhibition of •NO; cited from earlier work.

Take “3-Hydroxy-2-(galactopyranosyl)propyl bis(3-phenylpropyl) phosphate [Compound 1f]”: the “Luminol: highest obtained % of inhibition” value in test [1] is given as below 20% ^100µM. Moreover, in test [2], the “APF: highest obtained % of inhibition” value was below 20% ^50µM. Moreover, the “Amplex Red: highest obtained % of inhibition” value in test [3] is on record as below 20% ^50µM.
With “3-Hydroxy-2-galactopyranosylpropyl (bis(2-aminoethyl)) phosphate [Compound 1c]”, the “Luminol: highest obtained % of inhibition” value in test [1] is listed as below 20% ^100µM. Moreover, the “APF: highest obtained % of inhibition” value in test [2] is 22 ± 8% ^50µM. Further, the “Amplex Red: highest obtained % of inhibition” value in test [3] is given as below 20% ^50µM.
Usually inhibition stands for the relative decrease from the control value, in per cent. In the case of `NCCOP(=O)(OCCN)OCC1OC(OC(CO)CO)C(O)C(O)C1O` (stereo not shown) [Compound 1d], in test [1], the inhibition at 100 µM was below 20%. Also, the inhibition at 50 µM in test [2] worked out at 21 ± 6%; in test [3], 30 ± 9%.
Turning to `COc1ccc(CCCOP(=O)(OCCCc2ccc(OC)c(OC)c2)OCC(CO)OC2OC(CO)C(O)C(O)C2O)cc1OC` (stereo not shown) [Compound 1g, 3-Hydroxy-2-(galactopyranosyl)propyl (bis(3-(3,4-dimethoxyphenyl)propyl) phosphate], the inhibition at 100 µM in test [1] is below 20%. Also, the inhibition at 50 µM in test [2] and in test [3] was below 20% throughout.
As a reminder, the IC50 is the midpoint of a concentration-inhibition curve. As to `c1ccc2c(c1)[I+]c1ccccc1-2` [DPI, diphenyleneiodonium chloride, reference compound], the IC50 in test [1] was determined as 0.08 ± 0.01 µM; in test [2], 0.03 ± 0.003 µM; in test [3] it was 0.06 ± 0.004 µM.
For `O=c1c(O)c(-c2ccc(O)c(O)c2)oc2cc(O)cc(O)c12` [Quercetin, quercetin, reference compound], in that order: 1.2 ± 0.2 µM, 2.4 ± 0.2 µM and 4.1 ± 0.3 µM.
Take `COc1ccc2c(c1)c(CC(=O)O)c(C)n2C(=O)c1ccc(Cl)cc1` [indomethacin]: in the test with RAW 264.7 macrophages, the IC50 was 10.1 µM.
